Source: PubChem BioAssay AID248 (DTP/NCI, 2004)
Values joined by “and” are separate entries in the source; they are usually repeats but may differ in a detail not shown here. Equal entries are not always repeated. Inconclusive results and toxic doses are left out.

Test system: L1210 leukemia ip in BDF1 mice, survival T/C
Assay: NCI In Vivo Anticancer Drug Screen. Data for tumor model L1210 Leukemia (intraperitoneal) in B6D2F1 (BDF1) mice
Details: endpoint: mean survival time, higher = longer survival
Method in brief: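 Tumor cells were implanted, animals were treated, and survival was followed. The result divides the treated measurement by the vehicle-control measurement.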

[1] = dose: 100.0 mg/kg/injection, schedule: Q01DX009 (ip), vehicle: saline with Tween-80
[2] = dose: 200.0 mg/kg/injection, schedule: Q01DX009 (ip), vehicle: saline with Tween-80
[3] = dose: 50.0 mg/kg/injection, schedule: Q01DX009 (ip), vehicle: saline with Tween-80
[4] = dose: 100.0 mg/kg/injection, schedule: Q01DX009 (ip), vehicle: Klucel (hydroxypropylcellulose) (HPC)
[5] = dose: 100.0 mg/kg/injection, schedule: Q04DX003 (ip), vehicle: Klucel (hydroxypropylcellulose) (HPC)
[6] = dose: 200.0 mg/kg/injection, schedule: Q01DX009 (ip), vehicle: Klucel (hydroxypropylcellulose) (HPC)
[7] = dose: 200.0 mg/kg/injection, schedule: Q04DX003 (ip), vehicle: Klucel (hydroxypropylcellulose) (HPC)
[8] = dose: 400.0 mg/kg/injection, schedule: Q01DX009 (ip), vehicle: Klucel (hydroxypropylcellulose) (HPC)
[9] = dose: 400.0 mg/kg/injection, schedule: Q04DX003 (ip), vehicle: Klucel (hydroxypropylcellulose) (HPC)
[10] = dose: 100.0 mg/kg/injection, schedule: Q01DX009 (ip), vehicle: saline
[11] = dose: 100.0 mg/kg/injection, schedule: Q04DX003 (ip), vehicle: saline
[12] = dose: 200.0 mg/kg/injection, schedule: Q01DX009 (ip), vehicle: saline
[13] = dose: 200.0 mg/kg/injection, schedule: Q04DX003 (ip), vehicle: saline
[14] = dose: 400.0 mg/kg/injection, schedule: Q01DX009 (ip), vehicle: saline
[15] = dose: 400.0 mg/kg/injection, schedule: Q04DX003 (ip), vehicle: saline
[16] = dose: 100.0 mg/kg/injection, schedule: Q01DX001 (ip), vehicle: saline
[17] = dose: 200.0 mg/kg/injection, schedule: Q01DX001 (ip), vehicle: saline
[18] = dose: 400.0 mg/kg/injection, schedule: Q01DX001 (ip), vehicle: saline
[19] = dose: 100.0 mg/kg/injection, schedule: Q04DX003 (ip), vehicle: saline with Tween-80
[20] = dose: 200.0 mg/kg/injection, schedule: Q04DX003 (ip), vehicle: saline with Tween-80
[21] = dose: 400.0 mg/kg/injection, schedule: Q04DX003 (ip), vehicle: saline with Tween-80
[22] = dose: 100.0 mg/kg/injection, schedule: Q04DX003 (ip), vehicle: other
[23] = dose: 200.0 mg/kg/injection, schedule: Q04DX003 (ip), vehicle: other
[24] = dose: 400.0 mg/kg/injection, schedule: Q04DX003 (ip), vehicle: other

With `NNC(=O)CCc1ccccc1[N+](=O)[O-]` the T/C (dose: 40.0 mg/kg/injection, schedule: Q04DX003 (ip), vehicle: saline) was 108 % of control, the T/C (dose: 75.0 mg/kg/injection, schedule: Q01DX001 (ip), vehicle: saline) was 93 % of control and the T/C (dose: 75.0 mg/kg/injection, schedule: Q04DX003 (ip), vehicle: saline) was 98 % of control. For the same compound, the T/C (dose: 150.0 mg/kg/injection, schedule: Q01DX001 (ip), vehicle: saline) was 96 % of control and the T/C (dose: 150.0 mg/kg/injection, schedule: Q04DX003 (ip), vehicle: saline) was 101 % of control.
In the case of `O=C(NNC(=O)NC1OCC(O)C(O)C1O)Nc1ccccc1` (configuration not stated), the T/C [1] is reported as 97 % of control, the T/C [2] is reported as 100 % of control and the T/C (dose: 400.0 mg/kg/injection, schedule: Q01DX009 (ip), vehicle: saline with Tween-80) is reported as 97 % of control.
`C/[N+]([O-])=N\Nc1c(Cl)cc(Cl)cc1Cl` was tested, and the T/C [3] was 94 % of control, the T/C [1] was 105 % of control and the T/C [2] was 102 % of control.
For `N#CCc1[nH]nc(N)c1C#N`, the T/C [4] was 95 % of control, the T/C [5] was 89 % of control and the T/C [6] was 102 % of control. The T/C [7] was 93 % of control, the T/C [8] was 96 % of control and the T/C [9] was 91 % of control.
`CC(=O)Nc1ccc(C(=O)O)c([N+](=O)[O-])c1` was tested, and the T/C [10] was 100 % of control, the T/C [11] was 104 % of control and the T/C [12] was 94 % of control. For the same compound, the T/C [13] was 104 % of control, the T/C [14] was 93 % of control and the T/C [15] was 94 % of control.
For `COc1ccc(NP2(=O)OCC(C)([N+](=O)[O-])CO2)cc1` (configuration not stated), the T/C (dose: 50.0 mg/kg/injection, schedule: Q01DX001 (ip), vehicle: saline) was 98 % of control, the T/C [16] was 102 % of control and the T/C [17] was 98 % of control. The T/C [18] was 96 % of control.
With `CC(=O)Nc1cccc(N=Cc2ccc(N(CCOS(C)(=O)=O)CCOS(C)(=O)=O)cc2C)c1` the T/C (dose: 8.0 mg/kg/injection, schedule: Q01DX009 (ip), vehicle: saline with Tween-80) was 120 % of control.
For `Clc1ccc(CSc2ncnc3nc[nH]c23)cc1Cl`, the T/C [19] was 93 % of control, the T/C [20] was 94 % of control and the T/C [21] was 104 % of control.
In the case of `CC1(C)N=C2OCCN2C1=O`, the T/C (dose: 12.5 mg/kg/injection, schedule: Q04DX003 (ip), vehicle: saline) is reported as 101 % of control, the T/C (dose: 25.0 mg/kg/injection, schedule: Q04DX003 (ip), vehicle: saline) is reported as 111 % of control and the T/C (dose: 50.0 mg/kg/injection, schedule: Q04DX003 (ip), vehicle: saline) is reported as 93 % of control. For the same compound, the T/C [11] was 101 % of control, the T/C [13] was 98 % of control and 102 % of control and the T/C (dose: 300.0 mg/kg/injection, schedule: Q04DX003 (ip), vehicle: saline) was 104 % of control.
In the case of `Nc1nc(=S)c2ncn(C3OC(COC(=O)c4ccc(Cl)cc4)C(OC(=O)c4ccc(Cl)cc4)C3OC(=O)c3ccc(Cl)cc3)c2[nH]1` (configuration not stated), the T/C (dose: 3.5 mg/kg/injection, schedule: Q01DX Z (ip), vehicle: carboxymethylcellulose (CMC)) is reported as 113 % of control, the T/C (dose: 12.0 mg/kg/injection, schedule: Q01DX Z (ip), vehicle: carboxymethylcellulose (CMC)) is reported as 156 % of control and the T/C (dose: 12.0 mg/kg/injection, schedule: Q01DX Z (ip), vehicle: saline) is reported as 170 % of control. The T/C (dose: 19.0 mg/kg/injection, schedule: Q01DX Z (ip), vehicle: carboxymethylcellulose (CMC)) was 115 % of control, the T/C (dose: 44.0 mg/kg/injection, schedule: Q01DX Z (ip), vehicle: carboxymethylcellulose (CMC)) was 150 % of control and the T/C (dose: 50.0 mg/kg/injection, schedule: Q01DX Z (ip), vehicle: saline) was 114 % of control. The T/C (dose: 150.0 mg/kg/injection, schedule: Q01DX Z (ip), vehicle: carboxymethylcellulose (CMC)) was 108 % of control.
For `COc1cc(C2(O)C=C(C)C(=O)C=C2C)c(OC)cc1C` (configuration not stated), the T/C (dose: 50.0 mg/kg/injection, schedule: Q01DX001 (ip), vehicle: Klucel (hydroxypropylcellulose) (HPC)) was 92 % of control, the T/C (dose: 100.0 mg/kg/injection, schedule: Q01DX001 (ip), vehicle: Klucel (hydroxypropylcellulose) (HPC)) was 87 % of control and the T/C (dose: 200.0 mg/kg/injection, schedule: Q01DX001 (ip), vehicle: Klucel (hydroxypropylcellulose) (HPC)) was 86 % of control.
With `O=C(OC1C=CCC=C1)c1cc([N+](=O)[O-])cc([N+](=O)[O-])c1` the T/C [22] was 101 % of control, the T/C [23] was 101 % of control and the T/C [24] was 94 % of control.
With `O=C(O)c1cccc2ccc3ccccc3c12` the T/C [16] was 121 % of control, the T/C [11] was 102 % of control and the T/C [17] was 101 % of control. The T/C [13] was 96 % of control, the T/C [18] was 97 % of control and the T/C [15] was 96 % of control.
For `S=C(Nc1ccccc1)Nc1ccc2ccccc2c1`, the T/C [5] was 100 % of control, the T/C [7] was 94 % of control and the T/C [9] was 110 % of control.
`Cc1nc2[nH]c(=O)[nH]c(=O)c2nc1C` was tested, and the T/C (dose: 16.0 mg/kg/injection, schedule: Q01DX Z (ip), vehicle: methylcellulose (MC)) was 100 % of control, the T/C (dose: 31.0 mg/kg/injection, schedule: Q01DX Z (ip), vehicle: methylcellulose (MC)) was 95 % of control and the T/C (dose: 62.0 mg/kg/injection, schedule: Q01DX Z (ip), vehicle: methylcellulose (MC)) was 87 % of control. For the same compound, the T/C (dose: 100.0 mg/kg/injection, schedule: Q01DX001 (ip), vehicle: other) was 104 % of control, the T/C [22] was 96 % of control and the T/C (dose: 125.0 mg/kg/injection, schedule: Q01DX Z (ip), vehicle: methylcellulose (MC)) was 92 % of control and 93 % of control. For the same compound, the T/C (dose: 200.0 mg/kg/injection, schedule: Q01DX001 (ip), vehicle: other) was 107 % of control, the T/C [23] was 104 % of control and the T/C (dose: 250.0 mg/kg/injection, schedule: Q01DX Z (ip), vehicle: methylcellulose (MC)) was 89 % of control. For the same compound, the T/C (dose: 400.0 mg/kg/injection, schedule: Q01DX001 (ip), vehicle: other) was 102 % of control, the T/C [24] was 96 % of control and the T/C (dose: 500.0 mg/kg/injection, schedule: Q01DX Z (ip), vehicle: methylcellulose (MC)) was 89 % of control.
`C=C(Cl)CNN1CCOCC1` was tested, and the T/C (dose: 25.0 mg/kg/injection, schedule: Q01DX009 (ip), vehicle: saline with Tween-80) was 96 % of control, the T/C (dose: 25.0 mg/kg/injection, schedule: Q04DX003 (ip), vehicle: saline with Tween-80) was 95 % of control and the T/C [3] was 98 % of control. For the same compound, the T/C (dose: 50.0 mg/kg/injection, schedule: Q04DX003 (ip), vehicle: saline with Tween-80) was 97 % of control, the T/C [1] was 114 % of control and the T/C [19] was 98 % of control and 111 % of control. The T/C [20] was 94 % of control.
In the case of `c1ccc(C2(c3ccccc3)CC([P+](c3ccccc3)(c3ccccc3)c3ccccc3)=NN2CC[P+](c2ccccc2)(c2ccccc2)c2ccccc2)cc1`, the T/C (dose: 1.56 mg/kg/injection, schedule: Q01DX001 (ip), vehicle: saline) is reported as 107 % of control, the T/C (dose: 3.12 mg/kg/injection, schedule: Q01DX001 (ip), vehicle: saline) is reported as 91 % of control and the T/C (dose: 6.25 mg/kg/injection, schedule: Q01DX001 (ip), vehicle: saline) is reported as 108 % of control and 91 % of control.
With `O=C(O)C1CC=CCC1C(=O)NC(O)C(Cl)(Cl)Cl` (configuration not stated) the T/C [16] was 96 % of control, the T/C [10] was 103 % of control and the T/C (dose: 100.0 mg/kg/injection, schedule: Q04DX003 (ip), vehicle: acetone) was 93 % of control. For the same compound, the T/C [17] was 100 % of control, the T/C [12] was 102 % of control and the T/C (dose: 200.0 mg/kg/injection, schedule: Q04DX003 (ip), vehicle: acetone) was 98 % of control. For the same compound, the T/C [18] was 95 % of control, the T/C [14] was 100 % of control and the T/C (dose: 400.0 mg/kg/injection, schedule: Q04DX003 (ip), vehicle: acetone) was 97 % of control.
`c1ccc(-c2ccc(-c3ccccc3)c(-c3ccc4c(c3)CCC4)c2-c2ccccc2)cc1` was tested, and the T/C [19] was 96 % of control, the T/C [20] was 96 % of control and the T/C [21] was 89 % of control.
For `Cc1nc(N)c2nc(-c3ccc(N(CCCl)CCCl)cc3)c(N)nc2n1`, the T/C [16] was 96 % of control, the T/C [17] was 96 % of control and the T/C [18] was 96 % of control.
In the case of `O=C(Nc1ccccn1)NC1CCCCC1`, the T/C [4] is reported as 98 % of control, the T/C [6] is reported as 105 % of control and the T/C [8] is reported as 98 % of control.
In the case of `CCCc1ccc(C(=O)O)cc1`, the T/C [4] is reported as 95 % of control, the T/C [6] is reported as 91 % of control and the T/C [8] is reported as 98 % of control.
